Key:
Vero E6 cells = assay: Cytotoxicity, neutral red uptake assay in Vero E6 cells
[1] = as above; details: African green monkey
EV-A71 3C^pro = EV-A71 3C^pro (Human enterovirus 71, UniProt Q66478); assay: FRET-based enzymatic assay, EV-A71 3C^pro; type: biochemical
HCoV-OC43 M^pro = HCoV-OC43 M^pro (Human coronavirus OC43, UniProt P0C6X6); assay: FRET-based enzymatic assay, HCoV-OC43 M^pro
SARS-CoV M^pro = SARS-CoV M^pro (Severe acute respiratory syndrome coronavirus, UniProt P0C6X7); assay: biochemical; details: IC50 against SARS-CoV M^pro
EV-D68 2A^pro = EV-D68 2A^pro (Human enterovirus D68, UniProt Q68T42); assay: FRET-based enzymatic assay, EV-D68 2A^pro; type: biochemical
EV-D68 3C^pro = EV-D68 3C^pro (Human enterovirus D68, UniProt Q68T42); assay: FRET-based enzymatic assay, EV-D68 3C^pro; type: biochemical
MERS-CoV M^pro = MERS-CoV M^pro (Middle East respiratory syndrome-related coronavirus, UniProt K9N7C7); type: biochemical
EV-A71 2A^pro = EV-A71 2A^pro (Human enterovirus 71, UniProt Q66478); assay: FRET-based enzymatic assay, EV-A71 2A^pro; type: biochemical
Calu-3 cells = assay: Cytotoxicity in Calu-3 cells

Sequence of EV-A71 2A^pro (Q66478 863-1012 limits assumed): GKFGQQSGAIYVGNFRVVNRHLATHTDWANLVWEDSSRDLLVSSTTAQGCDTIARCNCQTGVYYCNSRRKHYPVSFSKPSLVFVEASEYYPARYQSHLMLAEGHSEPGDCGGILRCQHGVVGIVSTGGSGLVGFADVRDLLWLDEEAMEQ
Sequence of EV-A71 3C^pro (Q66478 1549-1731 limits assumed): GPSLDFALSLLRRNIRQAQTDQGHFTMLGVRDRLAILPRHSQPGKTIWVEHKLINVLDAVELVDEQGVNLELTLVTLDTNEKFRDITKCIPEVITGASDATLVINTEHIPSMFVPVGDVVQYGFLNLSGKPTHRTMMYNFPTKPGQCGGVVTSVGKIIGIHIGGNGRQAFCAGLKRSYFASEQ
Sequence of EV-D68 3C^pro (Q68T42 1549-1731 limits assumed): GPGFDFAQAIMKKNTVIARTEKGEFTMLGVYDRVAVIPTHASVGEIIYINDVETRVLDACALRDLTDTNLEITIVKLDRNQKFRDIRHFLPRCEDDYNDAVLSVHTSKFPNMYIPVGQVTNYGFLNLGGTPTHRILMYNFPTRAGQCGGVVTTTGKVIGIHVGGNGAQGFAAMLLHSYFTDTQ
Sequence of EV-D68 2A^pro (Q68T42 862-1008 limits assumed): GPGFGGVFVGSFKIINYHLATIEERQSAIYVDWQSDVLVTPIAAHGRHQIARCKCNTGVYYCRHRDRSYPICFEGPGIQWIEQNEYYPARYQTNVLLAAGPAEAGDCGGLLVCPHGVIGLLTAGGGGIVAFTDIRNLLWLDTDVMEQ
Sequence of HCoV-OC43 M^pro (P0C6X6 3247-3549 limits assumed): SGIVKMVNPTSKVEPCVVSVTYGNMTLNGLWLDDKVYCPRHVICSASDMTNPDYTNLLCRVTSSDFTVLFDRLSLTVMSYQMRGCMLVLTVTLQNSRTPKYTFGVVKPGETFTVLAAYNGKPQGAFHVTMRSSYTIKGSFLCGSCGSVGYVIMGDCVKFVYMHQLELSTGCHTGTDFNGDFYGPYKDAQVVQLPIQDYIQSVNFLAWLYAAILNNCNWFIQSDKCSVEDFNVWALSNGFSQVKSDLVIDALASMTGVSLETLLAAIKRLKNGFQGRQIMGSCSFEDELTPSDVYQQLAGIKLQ
Sequence of MERS-CoV M^pro (K9N7C7 3248-3553 limits assumed): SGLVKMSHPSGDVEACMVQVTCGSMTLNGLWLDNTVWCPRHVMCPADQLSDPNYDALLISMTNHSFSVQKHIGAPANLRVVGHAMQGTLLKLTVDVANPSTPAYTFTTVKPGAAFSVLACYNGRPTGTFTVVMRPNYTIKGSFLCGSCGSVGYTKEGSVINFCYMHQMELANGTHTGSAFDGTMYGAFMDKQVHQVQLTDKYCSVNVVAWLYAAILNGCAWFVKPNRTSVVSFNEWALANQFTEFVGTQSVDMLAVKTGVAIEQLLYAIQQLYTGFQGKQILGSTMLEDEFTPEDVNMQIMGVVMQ

In the case of CC(C)(C)c1ccc(N(C(=O)c2ccco2)C(C(=O)NC2CC2)c2cccnc2)cc1 (centres unmarked) [Compound 3, 2-[N-(4-tert-butylphenyl)-1-(furan-2-yl)formamido]-N-cyclopropyl-2-(pyridin-3-yl)acetamide], the “CC50 in Vero E6 cells” value (Vero E6 cells) is reported as “moderate to high cellular cytotoxicity”.
CC(C)(C)c1ccc(N(C(=O)c2ccco2)C(C(=O)NC2CCCC2)c2cccnc2)cc1 (centres unmarked) [Compound 5, 2-[N-(4-tert-butylphenyl)-1-(furan-2-yl)formamido]-N-cyclopentyl-2-(pyridin-3-yl)acetamide] gave a CC50 at 5 days [1] of over 100 µM.
In the case of CC(C)(C)c1ccc(N(C(=O)c2ccco2)C(C(=O)NC2CCCCC2)c2cccnc2)cc1 (centres unmarked) [Compound 6, 2-[N-(4-tert-butylphenyl)-1-(furan-2-yl)formamido]-N-cyclohexyl-2-(pyridin-3-yl)acetamide], the “CC50 in Vero E6 cells” value (Vero E6 cells) is reported as “moderate to high cellular cytotoxicity”.
In the case of C[C@H](NC(=O)C(c1cccnc1)N(C(=O)c1ccco1)c1ccc([Si](C)(C)C)cc1)c1ccccc1 (stereo partly drawn) [Compound 14, 2-[1-(furan-2-yl)-N-[4-(trimethylsilyl)phenyl]formamido]-N-[(1S)-1-phenylethyl]-2-(pyridinyl)acetamide], the “CC50 in Vero E6 cells” value (Vero E6 cells) is reported as “moderate to high cellular cytotoxicity”.
For C[C@H](NC(=O)C(c1cccnc1)N(C(=O)c1ccco1)c1ccc(C2CCCCC2)cc1)c1ccccc1 (stereo partly drawn) [Compound 17, 2-[N-(4-cyclohexylphenyl)-1-(furan-2-yl)formamido]-N-[(1S)-1-phenylethyl]-2-(pyridin-3-yl)acetamide], the “CC50 in Vero E6 cells” value (Vero E6 cells) was “moderate to high cellular cytotoxicity”.
For C[C@H](NC(=O)C(c1cccnc1)N(C(=O)c1ccco1)c1ccc(-c2ccco2)cc1)c1ccccc1 (stereo partly drawn) [Compound 18, 2-[1-(furan-2-yl)-N-[4-(furan-2-yl)phenyl]formamido]-N-[(1S)-1-phenylethyl]-2-(pyridin-3-yl)acetamide], the “CC50 in Vero E6 cells” value (Vero E6 cells) was “moderate to high cellular cytotoxicity”.
For C[C@H](NC(=O)C(c1cccnc1)N(C(=O)c1ccco1)c1ccc(-c2cccs2)cc1)c1ccccc1 (stereo partly drawn) [Compound 19, 2-[1-(furan-2-yl)-N-[4-(thiophen-2-yl)phenyl]formamido]-N-[(1S)-1-phenylethyl]-2-(pyridin-3-yl)acetamide], the “CC50 in Vero E6 cells” value (Vero E6 cells) was “moderate to high cellular cytotoxicity”.
For C[C@H](NC(=O)[C@@H](c1cccnc1)N(C(=O)c1ccco1)c1ccc(-c2ccccc2)cc1)c1ccccc1 [Compound 23R, (2R)-2-(N-{[1,1’-biphenyl]-4-yl}-1-(furan-2-yl)formamido)-N-[(1S)-1-phenylethyl]-2-(pyridin-3-yl)acetamide], the “IC50 against EV-A71 3C^pro” value (EV-A71 3C^pro; FRET-based enzymatic assay) was “not other viral proteases tested”, the “IC50 against HCoV-OC43 M^pro” value (HCoV-OC43 M^pro) was “not other viral proteases tested” and the IC50 (SARS-CoV M^pro) was at most 0.27 µM. The “IC50 against EV-D68 2A^pro” value (EV-D68 2A^pro; FRET-based enzymatic assay) was “not other viral proteases tested”, the “cytotoxicity to Vero E6 cells (not cytotoxic at up to)” value (Vero E6 cells) was over 100 µM and the “IC50 against EV-D68 3C^pro” value (EV-D68 3C^pro; FRET-based enzymatic assay) was “not other viral proteases tested”. The “IC50 against MERS-CoV M^pro” value (MERS-CoV M^pro) was “not other viral proteases tested”, the “IC50 against EV-A71 2A^pro” value (EV-A71 2A^pro; FRET-based enzymatic assay) was “not other viral proteases tested” and the “cytotoxicity in Calu-3 cells (not cytotoxic at up to)” value (Calu-3 cells) was over 100 µM.
With C[C@H](NC(=O)C(c1cccnc1)N(C(=O)c1cnco1)c1ccc(-c2ccccc2)cc1)c1ccccc1 (stereo partly drawn) [Compound 26, 2-(N-{[1,1’-biphenyl]-4-yl}-1-(1,3-oxazol-5-yl)formamido)-N-[(1S)-1-phenylethyl]-2-(pyridin-3-yl)acetamide] the “CC50 in Vero E6 cells” value (Vero E6 cells) was “moderate to high cellular cytotoxicity”.
For O=C(NC1CCCCC1)C(c1cccnc1)N(C(=O)c1ccco1)c1ccc(-c2ccccc2)cc1 (centres unmarked) [Compound 34, 2-(N-{[1,1’-biphenyl]-4-yl}-1-(furan-2-yl)formamido)-N-cyclohexyl-2-(pyridin-3-yl)acetamide], the “CC50 in Vero E6 cells” value (Vero E6 cells) was “moderate to high cellular cytotoxicity”.
With C[C@H](NC(=O)C(c1cccnc1)N(C(=O)c1ccno1)c1ccc(C2CCCCC2)cc1)c1ccccc1 (stereo partly drawn) [Compound 36, 2-[N-(4-cyclohexylphenyl)-1-(1,2-oxazol-5-yl)formamido]-N-[(1S)-1-phenylethyl]-2-(pyridin-3-yl)acetamide] the “CC50 in Vero E6 cells” value (Vero E6 cells) was “moderate to high cellular cytotoxicity”.
CC(C)C[C@H](NC(=O)OCc1ccccc1)C(=O)N[C@@H](C[C@@H]1CCNC1=O)C(O)S(=O)(=O)O (some centres unmarked) [GC376, reference compound] gave an IC50 (EV-A71 3C^pro) of at most 0.16 µM, an IC50 (EV-D68 2A^pro) of over 50 µM and an IC50 (EV-D68 3C^pro) of at most 0.16 µM. The IC50 (EV-A71 2A^pro) was over 50 µM.
